Data set [1] has as its target Human JNK2α2 (Homo sapiens (Human), UniProt P45984). Kind of data set: JNK assay in vitro, phosphorylation of GST-ATF2 (19-96) with [γ-33P] ATP. The settings on record: Human JNK2α2, 1 nM enzyme, 1 μM ATF2, 8 μM ATP; read-out: JNK2 − IC50. Type of data set: biochemical. The method, then: (§1) JNK activity was measured by phosphorylation of GST-ATF2 (19-96) with [γ-^33P] ATP. […] Human JNK2α2 assay contains 1 nM enzyme, 1 μM ATF2, 8 μM ATP with 1 μCi [γ-^33P] ATP. Human JNK1α1 assay contains 2 nM enzyme, 1 μM ATF2, 6 μM ATP with 1 μCi [γ-^33P] ATP. Human JNK3 (Upstate Biotech #14-501M) assay contains 2 nM enzyme, 1 μM ATF2, 4 μM ATP with 1 μCi [γ-^33P] ATP. The enzyme assay was carried out in the presence or absence of several compound concentrations. JNK and compound were pre-incubated for 10 min, followed by initiation of the enzymatic reaction by adding ATP and the substrate. The reaction mixture was incubated at 30° C. for 30 min. At the end of incubation, the reaction was terminated by transferring 25 μl of the reaction mixture to 150 μl of 10% glutathione Sepharose® slurry (Amersham #27-4574-01) containing 135 mM EDTA. The reaction product was captured on the affinity resin, and washed on a filtration plate (Millipore, MABVNOB50) with phosphate buffered saline for six times to remove free radionucleotide. The incorporation of ^33P into ATF2 was quantified on a microplate scintillation counter (Packard Topcount). Compound inhibition potency on JNK was measured by IC50 value generated from ten concentration inhibition curves fitted into the 3-parameter model: % inhibition=Maximum/(1+(IC50/[Inhibitor])^slope). Data were analyzed on Microsoft Excel for parameter estimation.

The target in data set [2] is Human JNK1α1 (Homo sapiens (Human), UniProt P45983). Kind of data set: JNK assay in vitro, phosphorylation of GST-ATF2 (19-96) with [γ-33P] ATP. To be noted: Human JNK1α1, 2 nM enzyme, 1 μM ATF2, 6 μM ATP; read-out: JNK1 − IC50. The format is biochemical. The procedure: as §1
Sequence of Human JNK1α1 (P45983 other isoform, or with tags, fused parts or gaps): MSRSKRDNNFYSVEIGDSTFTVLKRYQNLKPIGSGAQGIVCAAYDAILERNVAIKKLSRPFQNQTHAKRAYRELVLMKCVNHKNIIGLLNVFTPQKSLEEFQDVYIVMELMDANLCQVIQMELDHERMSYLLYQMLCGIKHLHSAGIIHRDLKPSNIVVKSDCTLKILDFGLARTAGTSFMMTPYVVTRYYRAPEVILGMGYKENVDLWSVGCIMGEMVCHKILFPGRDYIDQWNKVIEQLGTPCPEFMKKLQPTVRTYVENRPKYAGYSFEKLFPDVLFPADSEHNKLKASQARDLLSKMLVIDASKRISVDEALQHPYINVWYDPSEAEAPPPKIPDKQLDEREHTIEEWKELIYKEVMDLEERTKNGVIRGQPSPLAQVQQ

As usually defined, the IC50 is the point on the concentration scale where inhibition reaches its midpoint. As a reminder, the melting point is the temperature of the solid-liquid transition.

Some results are limits rather than exact numbers.

Sequence of Human JNK2α2 (P45984 whole entry): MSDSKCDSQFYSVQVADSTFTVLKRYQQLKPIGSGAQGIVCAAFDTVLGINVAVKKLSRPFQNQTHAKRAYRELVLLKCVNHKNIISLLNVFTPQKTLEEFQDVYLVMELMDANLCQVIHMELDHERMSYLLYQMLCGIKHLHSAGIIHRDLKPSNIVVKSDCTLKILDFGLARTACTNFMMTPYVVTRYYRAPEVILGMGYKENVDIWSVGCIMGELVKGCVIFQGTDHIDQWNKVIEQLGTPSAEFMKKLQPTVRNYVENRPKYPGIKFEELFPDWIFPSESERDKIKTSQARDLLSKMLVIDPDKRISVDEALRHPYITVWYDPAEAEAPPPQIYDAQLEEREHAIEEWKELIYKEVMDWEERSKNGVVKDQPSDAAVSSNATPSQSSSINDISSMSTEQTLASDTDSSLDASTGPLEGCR

In the case of `CC(C)(O)c1cccn2c(-c3ccnc(N[C@H]4CC[C@H](CS(C)(=O)=O)CC4)n3)cnc12` [Compound 1, 2-{3-[2-(4-methanesulfonylmethyl-cyclohexylamino)-pyrimidin-4-yl]-imidazo[1,2-a]pyridin-8-yl}-propan-2-ol], the melting point is 223 to 224 °C. For the same molecule, the concentration for half-maximal inhibition (IC50) in data set [1] stood at 295 nM.
For `CC(C)(O)c1cccn2c(-c3ccnc(N[C@H]4CC[C@H](C(=O)N5CCC(O)CC5)CC4)n3)cnc12` [Compound 2, (4-{4-[8-(1-hydroxy-1-methyl-ethyl)-imidazo[1,2-a]pyridin-3-yl]-pyrimidin-2-ylamino}-cyclohexyl)-(4-hydroxy-piperidin-1-yl)-methanone] the same measures were 188 to 190 °C and 369 nM.
In turn, `CC(C)(O)c1cccn2c(-c3ccnc(N[C@H]4CC[C@H](NS(C)(=O)=O)CC4)n3)cnc12` [Compound 3, N-(4-{4-[8-(1-Hydroxy-1-methyl-ethyl)-imidazo[1,2-a]pyridine-3-yl]-pyrimidin-2-ylamino}-cyclohexyl)-methanesulfonamide] registered a melting point of 249 to 250 °C.
The molecule `CN(C)S(=O)(=O)N[C@H]1CC[C@H](Nc2nccc(-c3cnc4c(C(C)(C)O)cccn34)n2)CC1` [Compound 4, N-(4-{4-[8-(1-Hydroxy-1-methyl-ethyl)-imidazo[1,2-a]pyridine-3-yl]-pyrimidin-2-ylamino}-cyclohexyl)-(N,N-dimethylamino)sulfonamide] gave a melting point greater than 300 °C. For the same molecule, in data set [1], the half-inhibitory concentration (IC50) came to 124 nM.
Turning to `CS(=O)(=O)CCCOc1cccn2c(-c3ccnc(N[C@H]4CC[C@H](C(=O)N5CCC(O)CC5)CC4)n3)cnc12` [Compound 5, (4-Hydroxy-piperidin-1-yl)-(4-{4-[8-(3-methanesulfonyl-propoxy)-imidazo[1,2-a]pyridin-3-yl]-pyrimidin-2-ylamino}-cyclohexyl)-methanone], the melting point is 258 to 259 °C. In addition, the IC50 in data set [2] stood at 21.6 nM. Further, in data set [1], the IC50 came out at 50.3 nM.
The like results for `O=C([C@H]1CC[C@H](Nc2nccc(-c3cnc4c(OCc5ccccc5)cccn34)n2)CC1)N1CCC(O)CC1` [Compound 6, {4-[4-(8-Benzyloxy-imidazo[1,2-a]pyridin-3-yl)-pyrimidin-2-ylamino]-cyclohexyl}-(4-hydroxy-piperidin-1-yl)-methanone] were, in that order, 210 to 212 °C, 33.3 nM and 55.9 nM.
The like results for `CS(=O)(=O)N[C@H]1CC[C@H](Nc2nccc(-c3cnc4c(OCc5ccccc5)cccn34)n2)CC1` [Compound 7, N-{4-[4-(8-benzyloxy-imidazo[1,2-a]pyridin-3-yl)-pyrimidin-2-ylamino]-cyclohexyl}-methanesulfonamide] were, in that order, 236.9 to 241 °C, 23.7 nM and 52.7 nM.
The like results for `CCOC(=O)[C@H]1CC[C@H](Nc2nccc(-c3cnc4c(OCc5ccccc5)cccn34)n2)CC1` [Compound 8, 4-[4-(8-benzyloxy-imidazo[1,2-a]pyridine-3-yl)-pyrimidin-2-ylamino]-cyclohexanecarboxylic acid ethyl ester] were, in that order, 147 to 149 °C, 48.9 nM and 104 nM.
In turn, `O[C@H]1CC[C@H](Nc2nccc(-c3cnc4c(OCc5ccccc5)cccn34)n2)CC1` [Compound 9, 4-[4-(8-Benzyloxy-imidazo[1,2-a]pyridin-3-yl)-pyrimidin-2-yl-amino]-cyclohexanol] came in with a melting point of 236 to 238 °C. Also, the concentration for half-maximal inhibition (IC50) in data set [2] is 26.9 nM. Besides, the half-maximal inhibitory concentration (IC50) in data set [1] is 49.4 nM.
For `CS(=O)(=O)N[C@H]1CC[C@H](Nc2nccc(-c3cnc4ccccn34)n2)CC1` [Compound 10, N-[4-(4-Imidazo[1,2-a]pyridin-3-yl-pyrimidin-2-ylamino)-cyclohexyl]-methanesulfonamide] the same measures were 259 to 261 °C, 56.7 nM and 214 nM.
For the molecule `O[C@H]1CC[C@H](Nc2nccc(-c3cnc4ccccn34)n2)CC1` [Compound 11, 4-(4-Imidazo[1,2-a]pyridin-3-yl-pyrimidin-2-ylamino)-cyclohexanol], the figures for the IC50 in data set [2] and in data set [1] were 86.6 nM and 254 nM, respectively.

The values are drawn from patent US8569306B2, “JNK modulators” (Hoffmann-La Roche, Inc., priority 2009, dated 2013).
